In assay [1] the test system is S. aureus AR222. The arrangement: key to Antibiotic susceptibility (R/S/I): R: resistance; S: sensitive; I: intermediate. Conditions: S. aureus AR222 (CDC strain), cited from earlier work; for Antibiotic susceptibility (R/S/I): Table 2.
A further assay has as its system S. aureus ATCC 25923. On the set-up: key: R: resistance; S: sensitive; I: intermediate. Conditions: Table 2; cited from earlier work.
The test system of the next assay is S. aureus AR215. The arrangement: key to Antibiotic susceptibility (R/S/I): R: resistance; S: sensitive; I: intermediate. The note with it: S. aureus AR215 (CDC strain), cited from earlier work; for Antibiotic susceptibility (R/S/I): Table 2.
In the next assay the test system is S. aureus AR217. On the set-up: key to Antibiotic susceptibility (R/S/I): R: resistance; S: sensitive; I: intermediate. Conditions: S. aureus AR217 (CDC strain), cited from earlier work; for Antibiotic susceptibility (R/S/I): Table 2.
A further assay relates to S. aureus ATCC25923. The assay is described as follows: S. aureus MIC80 determination, broth microdilution (CLSI) in CAMHB. The class given is cell-based. The note with it: Staphylococcus aureus, ATCC25923, S. aureus ATCC 25923. How it is done: (§1) S. Aureus MIC80 determinations in S. aureus ATCC25923 or in multidrug-resistant strains AR215, AR217 and AR255. MIC80's were determined by the broth microdilution method recommended by the Clinical and Laboratory Standards Institute (CLSI) in Cation-adjusted Mueller-Hinton broth (CAMHB). (Cao et al., 2018). In the preliminary screening, three compound concentrations were used: 5.8, 20.4, and 71.4 μM; for quantitative MIC80 measurements, a 1.5-fold dilution series of the compounds was prepared in CAMHB. Overnight bacterial culture was added to the diluted compounds in a 96-well plate after adjusting the bacterial concentration to achieve a 5×10^5 CFU/mL final concentration. After 16-24 h incubation at 35±2° C., the plates were read at 600 nm in a microplate reader. The MIC80 was defined as the concentration of an antibacterial agent that inhibited bacteria growth ≥80% compared to vehicle-treated control cultures. All values were determined at least twice independently, and the average number is reported.
In general terms: Dilution methods test growth across graded concentrations, often in twofold steps.

The test system of assay [2] is S. aureus AR215 (MRSA, multidrug-resistant strain). The description is as above. The format is cell-based. Conditions: Staphylococcus aureus, MRSA, Table 2. As to the method: as §1
(§2) AR215, AR217, and AR222 were obtained from the Centers for Disease Control and Prevention (CDC). AR215 and AR217 are cefoxitin-screen positive (resistant to cefoxitin) and resistant to oxacillin, which are MRSA strains. AR215 is also resistant to clindamycin, erythromycin, levofloxacin, and penicillin. AR217 is also resistant to levofloxacin, penicillin, and Trimethoprim-sulfamethoxazole. AR222 is only resistant to penicillin.

Assay [3] deals with S. aureus AR217 (MRSA, multidrug-resistant strain). The description is as above. The note with it: Staphylococcus aureus, MRSA, Table 2. The format is cell-based. As to the method:
as §1, §2

In assay [4] the test system is S. aureus AR222. Described as above. Conditions: Staphylococcus aureus, Table 2. The class given is cell-based. As to the method: as §1, §2
Setting [5] is: Table 1, growth inhibition ≥80% vs vehicle, 16-24 h, read-out: ATCC 25923 MIC80.

Usually MIC80 stands for the lowest concentration that inhibits either 80% of growth or 80% of the strains tested, depending on the study.

Converted amounts (≈) assume the structure as drawn. Like-named read-outs stand apart in the source and are kept apart here.

Take `CCCCCCCCCC(=O)N[C@@H](Cc1c[nH]c2ccccc12)C(=O)N[C@H](CC(N)=O)C(=O)N[C@@H](CC(=O)O)C(=O)N[C@@H]1C(=O)NCC(=O)N[C@@H](CCCN)C(=O)N[C@@H](CC(=O)O)C(=O)N[C@H](C)C(=O)N[C@@H](CC(=O)O)C(=O)NCC(=O)N[C@H](CO)C(=O)N[C@@H]([C@H](C)CC(=O)O)C(=O)N[C@@H](CC(=O)c2ccccc2N)C(=O)O[C@@H]1C` [DAP, Daptomycin]: the “Antibiotic susceptibility (R/S/I)” value in the assay with S. aureus AR222 [1] and in the assay on S. aureus ATCC 25923 was “S” each time.
On to `CC[C@H]1OC(=O)[C@H](C)[C@@H](O[C@H]2C[C@@](C)(OC)[C@@H](O)[C@H](C)O2)[C@H](C)[C@@H](O[C@@H]2O[C@H](C)C[C@H](N(C)C)[C@H]2O)[C@](C)(O)C[C@@H](C)C(=O)[C@H](C)[C@@H](O)[C@]1(C)O` [ERY, Erythromycin], for which the “Antibiotic susceptibility (R/S/I)” value in the assay with S. aureus AR222 [1] is on record as “S”; in the assay with S. aureus AR215, “R”; in the assay on S. aureus AR217, “S”; in the assay with S. aureus ATCC 25923 it was “S”. Besides, the “Resistance of the strain to the antibiotic” value (from here on “Resistance of the strain”) with S. aureus AR215 is given as “resistant”.
`Cc1ccc(C(=O)N(CCCn2ccnc2)c2nc3c(C)cc(Cl)cc3s2)o1` [Example 4, N-(3-(1H-imidazol-1-yl)propyl)-N-(6-chloro-4-methylbenzo[d]thiazol-2-yl)-5-methylfuran-2-carboxamide]: the MIC80 came out at 2.6 µM (≈ 1.08 µg/mL) in the assay with S. aureus ATCC25923 (setting [5]); 0.78 µM (≈ 0.324 µg/mL) with S. aureus ATCC25923 (Table 2, read-out: MIC80); 8.9 µM (≈ 3.69 µg/mL) in assay [2]; 5.9 µM (≈ 2.45 µg/mL) in assay [3]; 0.78 µM (≈ 0.324 µg/mL) against S. aureus AR222 [4].
As to `Cc1ccoc1C(=O)N(CCCn1ccnc1)c1nc2c(C)cc(Cl)cc2s1` [Example 15, N-(3-(1H-imidazol-1-yl)propyl)-N-(6-chloro-4-methylbenzo[d]thiazol-2-yl)-3-methylfuran-2-carboxamide], the MIC80 in the assay on S. aureus ATCC25923 (setting [5]) is below 1.7 µM; with S. aureus ATCC25923 (Table 2, read-out: MIC80), 1.8 µM (≈ 0.747 µg/mL); in assay [2], 13.3 µM (≈ 5.52 µg/mL); in assay [3] it was 4 µM (≈ 1.66 µg/mL); against S. aureus AR222 [4], 2.6 µM (≈ 1.08 µg/mL).
Regarding `NCc1cccc2sc(N(CCCn3ccnc3)C(=O)C3CCC3)nc12` [Example 47, N-[4-(aminomethyl)-1,3-benzothiazol-2-yl]-N-[3-(1H-imidazol-1-yl)propyl]cyclobutanecarboxamide], the MIC80 in the assay on S. aureus ATCC25923 (setting [5]) is above 100 µM.
`NCc1cccc2sc(N(CCCn3ccnc3)C(=O)C3CC3)nc12` [Example 48, N-[4-(aminomethyl)-1,3-benzothiazol-2-yl]-N-[3-(1H-imidazol-1-yl)propyl]cyclopropanecarboxamide]: the MIC80 in the assay with S. aureus ATCC25923 (setting [5]) was above 100 µM.
On the same count and under the same terms, as for `NCc1ccc2nc(N(CCCn3ccnc3)C(=O)c3ccco3)sc2c1` [Example 49, N-[6-(aminomethyl)-1,3-benzothiazol-2-yl]-N-[3-(1H-imidazol-1-yl)propyl]furan-2-carboxamide], the figure is above 100 µM; as for `NCc1ccc2nc(N(CCCn3ccnc3)C(=O)C3CCC3)sc2c1` [Example 50, N-[6-(aminomethyl)-1,3-benzothiazol-2-yl]-N-[3-(1H-imidazol-1-yl)propyl]cyclobutanecarboxamide], above 100 µM.
For the molecule `NCc1ccc2nc(N(CCCn3ccnc3)C(=O)C3CC3)sc2c1` [Example 51], in the assay on S. aureus ATCC25923 (setting [5]), the MIC80 was above 100 µM.
On the same count and under the same terms, the same measure for `O=C(c1ccco1)N(CCCn1ccnc1)c1nc2ccc(Cl)nc2s1` [Example 52, N-{5-chloro-[1,3]thiazolo[5,4-b]pyridin-2-yl}-N-[3-(1H-imidazol-1-yl)propyl]furan-2-carboxamide]: above 100 µM; for `O=C(C1CC1)N(CCCn1ccnc1)c1nc2ccc(Cl)nc2s1` [Example 53, N-{5-chloro-[1,3]thiazolo[5,4-b]pyridin-2-yl}-N-[3-(1H-imidazol-1-yl)propyl]cyclopropanecarboxamide]: above 100 µM.
Same read-out and setting: as for `Cc1nc(Cl)cc2sc(N(CCCn3ccnc3)C(=O)c3ccco3)nc12` [Example 54, N-{6-chloro-4-methyl-[1,3]thiazolo[4,5-c]pyridin-2-yl}-N-[3-(1H-imidazol-1-yl)propyl]furan-2-carboxamide], the figure is above 100 µM.
Turning to `Cc1nc(Cl)cc2sc(N(CCCn3ccnc3)C(=O)C3CC3)nc12` [Example 55, N-{6-chloro-4-methyl-[1,3]thiazolo[4,5-c]pyridin-2-yl}-N-[3-(1H-imidazol-1-yl)propyl]cyclopropanecarboxamide], in the assay with S. aureus ATCC25923 (setting [5]), the MIC80 is 100 µM (≈ 37.6 µg/mL).
On the same count and under the same terms, the same measure for `Cc1cc(Cl)cc2sc(N(CC3CCN(C(=O)OC(C)(C)C)CC3)C(=O)C3CCC3)nc12` [Example 56]: above 100 µM.
Still for that read-out and setting: as for `Cc1cc(Cl)cc2sc(N3CCC(CNC(=O)OC(C)(C)C)CC3)nc12` [Example 57], the figure is above 100 µM; as for `Cc1cc(Cl)cc2sc(N3CCC(NC(=O)OC(C)(C)C)CC3)nc12` [Example 58], above 100 µM.
Regarding `Cc1cc(Cl)cc2sc(N3CCN(C(=O)OC(C)(C)C)CC3)nc12` [Example 59], in the assay on S. aureus ATCC25923 (setting [5]), the MIC80 was above 100 µM.
Same read-out and setting: the same measure for `Cc1cc(Cl)cc2sc(N(CCCn3ccnc3)C(=O)C(C)N)nc12` (stereo not drawn) [Example 60]: above 100 µM; for `Cc1cc(Cl)cc2sc(NC(=O)C3CC3)nc12` [Example 61]: above 100 µM.
The same measure, in the same setting: as for `Cc1cc(Cl)cc2sc(NC(=O)c3ccco3)nc12` [Example 62], the figure is above 100 µM.
Regarding `CO[C@@]1(NC(=O)Cc2cccs2)C(=O)N2C(C(=O)O)=C(COC(N)=O)CS[C@@H]21` [FOX, Cefoxitin], the “Antibiotic susceptibility (R/S/I)” value with S. aureus AR222 [1] was “S”; in the assay with S. aureus AR215, “R”; with S. aureus AR217, “R”. Also, the “Resistance of the strain” value with S. aureus AR215 and in the assay with S. aureus AR217 was “resistant” throughout.
With `CC(=O)NC[C@H]1CN(c2ccc(N3CCOCC3)c(F)c2)C(=O)O1` [LZD, Linezolid], the “Antibiotic susceptibility (R/S/I)” value in the assay on S. aureus AR222 [1], with S. aureus AR215, in the assay on S. aureus AR217 and in the assay on S. aureus ATCC 25923 was “S” each time.
Turning to `Cc1onc(-c2ccccc2)c1C(=O)N[C@@H]1C(=O)N2[C@@H]1SC(C)(C)[C@@H]2C(=O)O` [OXA, Oxacillin], the “Antibiotic susceptibility (R/S/I)” value with S. aureus AR222 [1] is given as “S”; with S. aureus AR215, “R”; with S. aureus AR217 it was “R”; in the assay on S. aureus ATCC 25923 it was “S”. In addition, the “Resistance of the strain” value in the assay on S. aureus AR215 and with S. aureus AR217 was “resistant” each time.
As to `CO[C@H]1/C=C/O[C@@]2(C)Oc3c(C)c(O)c4c(O)c(c(/C=N/N5CCN(C)CC5)c(O)c4c3C2=O)NC(=O)/C(C)=C\C=C\[C@H](C)[C@H](O)[C@@H](C)[C@@H](O)[C@@H](C)[C@H](OC(C)=O)[C@@H]1C` [RIF, Rifampin], the “Antibiotic susceptibility (R/S/I)” value in the assay on S. aureus AR222 [1] is given as “I”; with S. aureus AR215, “S”; in the assay on S. aureus AR217, “S”; with S. aureus ATCC 25923, “S”.
Regarding `CN[C@H](CC(C)C)C(=O)N[C@H]1C(=O)N[C@@H](CC(N)=O)C(=O)N[C@H]2C(=O)N[C@H]3C(=O)N[C@H](C(=O)N[C@H](C(=O)O)c4cc(O)cc(O)c4-c4cc3ccc4O)[C@H](O)c3ccc(c(Cl)c3)Oc3cc2cc(c3O[C@@H]2O[C@H](CO)[C@@H](O)[C@H](O)[C@H]2O[C@H]2C[C@](C)(N)[C@H](O)[C@H](C)O2)Oc2ccc(cc2Cl)[C@H]1O` [VAN, Vancomycin], the “Antibiotic susceptibility (R/S/I)” value in the assay on S. aureus AR222 [1] is “I”; in the assay with S. aureus AR215, “I”; with S. aureus AR217 it was “I”; in the assay with S. aureus ATCC 25923, “S”.
Turning to Gentamicin, the “Antibiotic susceptibility (R/S/I)” value with S. aureus AR222 [1], with S. aureus AR215, in the assay with S. aureus AR217 and in the assay on S. aureus ATCC 25923 was “S” each time.
Turning to Penicillin, the “Resistance of the strain” value with S. aureus AR222 [1], with S. aureus AR215 and in the assay on S. aureus AR217 was “resistant” throughout. Further, the “Antibiotic susceptibility (R/S/I)” value in the assay with S. aureus AR222 [1], with S. aureus AR215 and with S. aureus AR217 was “R” in each case.

Values taken from patent US12570647B2 (Saint Louis University, priority 2021, dated 2026).
